In the NIST ThermoML archive (doi:10.1016/j.fluid.2011.04.024):

Conditions: Liquid, Closed cell (Static) method

C=CCCCCCCCCCC [1-dodecene]
Conditions | vapor or sublimation pressure [kPa]
430.38 K | 21.7
443.18 K | 33.6
453.99 K | 44
459.86 K | 52.6
464.81 K | 61.6
470.91 K | 70.7
476.45 K | 80.8
480.78 K | 90.2
484.11 K | 100.7

CCCCCCCCCCCC [dodecane]
Conditions | vapor or sublimation pressure [kPa]
432.23 K | 20.9
444.86 K | 31
455.87 K | 42.7
462.05 K | 50.8
469.67 K | 62.3
474.19 K | 70.2
479.82 K | 81
484.34 K | 90.8
488.5 K | 100.6

c1ccc2sccc2c1 [benzo[b]thiophene]
Conditions | vapor or sublimation pressure [kPa]
434.26 K | 21.3
446.75 K | 30.3
457.64 K | 41.1
465.61 K | 50.8
472.44 K | 60.5
479.15 K | 71.5
484.01 K | 80.5
489.09 K | 90.9
493.8 K | 101.5

CCCCCCCCO [octan-1-ol]
Conditions | vapor or sublimation pressure [kPa]
417.83 K | 20.5
428.6 K | 30.4
437.35 K | 41.5
443.9 K | 50.5
449.55 K | 60.7
454.52 K | 71
459.23 K | 81
463.21 K | 91.1
466.61 K | 100.3
